SMILES strings stand for the structures.

In one assay the target is T1, SMARCA2-HiBiT (Homo sapiens, UniProt P51531).
T1 construct: SMARCA2-HiBiT knock-in Hela monoclonal cell (CS302366); host or cells: HeLa monoclonal knock-in line (CRISPR HiBiT knock-in at the endogenous locus, heterozygous)
Nature of the assay: SMARCA2 HiBiT degradation assay in HeLa cells. The format is cell-based. Conditions: 18 hours incubation; for DC50: read-out: HeLa_HiBit-SM2 DC50; for Dmax: HeLa, read-out: HeLa-HiBit-SM2 Dmax (%). Here is the method:
(§1) HiBiT peptide knock-in of SMARCA2 in LgBiT expressing HEK293T cells was performed by CRISPR-mediated tagging system as described Promega. The homozygous HiBiT knock-in on c-terminus SMARCA2 was confirmed by sanger sequence. SMARCA2-HiBiT knock-in Hela monoclonal cell (CS302366) and SMARCA4-HiBiT knock-in Hela monoclonal cell (CS3023226) were purchased from Promega. The heterozygous HiBiT-knock-in was confirmed by sanger sequence in both SMARCA2-HiBiT and SMARCA4-HiBiT monoclonal cells.
(§2) SMARCA2 HiBiT and SMARCA4 HiBiT Degradation Assay in HeLa Cells
(§3) Dispense 10 ul aliquot of prepared Hela-SMARCA2-HiBiT or Hela-SMARCA4-HiBiT cells (1:1 ratio of cells:Trypan Blue (#1450013, Bio-Rad)) onto cell counting slide (#145-0011, Bio-Rad) and obtain cell density and cell viability using cell counter (TC20, Bio-Rad). Remove appropriate volume of resuspended cells from culture flask to accommodate 2500 cells/well @20 μL/well. Transfer Hela-HiBiT cells to 50 mL conical (#430290, Corning). Spin down at 1000 rpm for 5 min using tabletop centrifuge (SPINCHRON 15, Beckman). Discard supernatant and resuspend cell pellet in modified EMEM (#30-2003, ATCC) cell culture media containing 10% FBS (F2422-500ML, Sigma), and 1×Penicillin/Streptomycin (200 g/L) (30-002-CI, Corning) to a cell density of 125,000 cells/mL. Dispense 20 μL of resuspended Hela-HiBit cells per well in 384-well TC treated plate (#12-565-343, Thermo Scientific) using standard cassette (#50950372, Thermo Scientific) on Multidrop Combi (#5840310, Thermo Scientific) inside laminar flow cabinet. Dispense test compounds onto plates using digital liquid dispenser (D300E, Tecan). Incubate plates in humidified tissue culture incubator @37° C. for 18 hours. Add 20 μL of prepared Nano-Glo® HiBiT Lytic detection buffer (N3050, Promega) to each well of 384-well plate using small tube cassette (#24073295, Thermo Scientific) on Multidrop Combi, incubate @RT for 30-60 min. Read plates on microplate reader (Envision 2105, PerkinElmer) using 384 well Ultra-Sensitive luminescence mode. Raw data files and compound information reports are swept into centralized data lake and deconvoluted using automated scripts designed by TetraScience, Inc. Data analysis, curve-fitting and reporting done in Dotmatics Informatics Suite using Screening Ultra module.
Background: The HiBiT peptide binds its large partner to form an active luciferase.

A further assay concerns the target T2, SMARCA4-HiBiT (Homo sapiens, UniProt P51532).
T2 construct: SMARCA4-HiBiT knock-in Hela monoclonal cell (CS3023226); host or cells: HeLa monoclonal knock-in line (CRISPR HiBiT knock-in at the endogenous locus, heterozygous)
Briefly: SMARCA4 HiBiT degradation assay in HeLa cells. The assay is classed as cell-based. Conditions: 18 hours incubation; for DC50: read-out: HeLa-HiBit-SM4 DC50; for Dmax: HeLa, read-out: HeLa-HiBit-SM4 Dmax (%). As to the method:
as §1, §2, §3

T1 sequence (P51531 whole entry): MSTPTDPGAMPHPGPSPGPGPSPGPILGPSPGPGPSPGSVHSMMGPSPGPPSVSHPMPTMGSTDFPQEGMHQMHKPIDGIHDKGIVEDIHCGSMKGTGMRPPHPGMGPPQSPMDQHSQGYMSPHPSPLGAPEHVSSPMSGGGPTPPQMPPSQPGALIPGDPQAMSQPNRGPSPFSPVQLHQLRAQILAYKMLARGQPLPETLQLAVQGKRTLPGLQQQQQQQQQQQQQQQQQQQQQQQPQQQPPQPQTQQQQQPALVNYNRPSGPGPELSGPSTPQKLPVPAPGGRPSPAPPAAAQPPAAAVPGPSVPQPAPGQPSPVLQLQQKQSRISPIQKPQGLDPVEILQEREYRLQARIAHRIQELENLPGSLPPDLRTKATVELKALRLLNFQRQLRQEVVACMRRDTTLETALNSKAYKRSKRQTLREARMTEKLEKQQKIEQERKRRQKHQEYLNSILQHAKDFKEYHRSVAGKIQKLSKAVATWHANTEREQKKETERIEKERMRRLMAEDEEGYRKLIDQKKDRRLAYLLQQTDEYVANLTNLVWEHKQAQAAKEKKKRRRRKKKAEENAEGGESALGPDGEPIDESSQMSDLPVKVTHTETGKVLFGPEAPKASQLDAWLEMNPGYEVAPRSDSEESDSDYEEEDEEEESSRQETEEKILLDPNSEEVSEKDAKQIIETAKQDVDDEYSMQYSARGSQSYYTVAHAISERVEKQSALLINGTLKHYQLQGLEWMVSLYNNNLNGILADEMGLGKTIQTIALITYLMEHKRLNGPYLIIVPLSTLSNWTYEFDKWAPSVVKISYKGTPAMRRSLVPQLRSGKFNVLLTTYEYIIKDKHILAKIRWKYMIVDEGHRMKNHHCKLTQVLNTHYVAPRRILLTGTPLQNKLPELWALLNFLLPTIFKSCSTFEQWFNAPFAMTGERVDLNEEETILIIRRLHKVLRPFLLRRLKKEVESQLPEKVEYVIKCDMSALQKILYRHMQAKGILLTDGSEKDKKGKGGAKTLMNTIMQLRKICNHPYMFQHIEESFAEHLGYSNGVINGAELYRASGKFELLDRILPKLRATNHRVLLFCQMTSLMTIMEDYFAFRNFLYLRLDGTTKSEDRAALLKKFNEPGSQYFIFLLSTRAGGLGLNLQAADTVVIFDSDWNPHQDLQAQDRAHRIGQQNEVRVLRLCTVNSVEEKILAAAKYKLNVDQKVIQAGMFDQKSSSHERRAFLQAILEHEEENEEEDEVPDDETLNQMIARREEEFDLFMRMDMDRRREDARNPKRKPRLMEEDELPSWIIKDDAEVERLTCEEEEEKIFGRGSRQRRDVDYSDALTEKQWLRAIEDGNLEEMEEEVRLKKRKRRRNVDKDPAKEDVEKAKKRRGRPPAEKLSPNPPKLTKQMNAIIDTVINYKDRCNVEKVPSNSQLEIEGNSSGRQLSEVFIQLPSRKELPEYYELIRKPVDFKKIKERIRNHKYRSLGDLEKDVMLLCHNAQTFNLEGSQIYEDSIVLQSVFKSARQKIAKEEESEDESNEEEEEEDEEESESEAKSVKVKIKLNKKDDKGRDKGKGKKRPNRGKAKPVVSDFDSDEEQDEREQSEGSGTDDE
T2 sequence (P51532 whole entry): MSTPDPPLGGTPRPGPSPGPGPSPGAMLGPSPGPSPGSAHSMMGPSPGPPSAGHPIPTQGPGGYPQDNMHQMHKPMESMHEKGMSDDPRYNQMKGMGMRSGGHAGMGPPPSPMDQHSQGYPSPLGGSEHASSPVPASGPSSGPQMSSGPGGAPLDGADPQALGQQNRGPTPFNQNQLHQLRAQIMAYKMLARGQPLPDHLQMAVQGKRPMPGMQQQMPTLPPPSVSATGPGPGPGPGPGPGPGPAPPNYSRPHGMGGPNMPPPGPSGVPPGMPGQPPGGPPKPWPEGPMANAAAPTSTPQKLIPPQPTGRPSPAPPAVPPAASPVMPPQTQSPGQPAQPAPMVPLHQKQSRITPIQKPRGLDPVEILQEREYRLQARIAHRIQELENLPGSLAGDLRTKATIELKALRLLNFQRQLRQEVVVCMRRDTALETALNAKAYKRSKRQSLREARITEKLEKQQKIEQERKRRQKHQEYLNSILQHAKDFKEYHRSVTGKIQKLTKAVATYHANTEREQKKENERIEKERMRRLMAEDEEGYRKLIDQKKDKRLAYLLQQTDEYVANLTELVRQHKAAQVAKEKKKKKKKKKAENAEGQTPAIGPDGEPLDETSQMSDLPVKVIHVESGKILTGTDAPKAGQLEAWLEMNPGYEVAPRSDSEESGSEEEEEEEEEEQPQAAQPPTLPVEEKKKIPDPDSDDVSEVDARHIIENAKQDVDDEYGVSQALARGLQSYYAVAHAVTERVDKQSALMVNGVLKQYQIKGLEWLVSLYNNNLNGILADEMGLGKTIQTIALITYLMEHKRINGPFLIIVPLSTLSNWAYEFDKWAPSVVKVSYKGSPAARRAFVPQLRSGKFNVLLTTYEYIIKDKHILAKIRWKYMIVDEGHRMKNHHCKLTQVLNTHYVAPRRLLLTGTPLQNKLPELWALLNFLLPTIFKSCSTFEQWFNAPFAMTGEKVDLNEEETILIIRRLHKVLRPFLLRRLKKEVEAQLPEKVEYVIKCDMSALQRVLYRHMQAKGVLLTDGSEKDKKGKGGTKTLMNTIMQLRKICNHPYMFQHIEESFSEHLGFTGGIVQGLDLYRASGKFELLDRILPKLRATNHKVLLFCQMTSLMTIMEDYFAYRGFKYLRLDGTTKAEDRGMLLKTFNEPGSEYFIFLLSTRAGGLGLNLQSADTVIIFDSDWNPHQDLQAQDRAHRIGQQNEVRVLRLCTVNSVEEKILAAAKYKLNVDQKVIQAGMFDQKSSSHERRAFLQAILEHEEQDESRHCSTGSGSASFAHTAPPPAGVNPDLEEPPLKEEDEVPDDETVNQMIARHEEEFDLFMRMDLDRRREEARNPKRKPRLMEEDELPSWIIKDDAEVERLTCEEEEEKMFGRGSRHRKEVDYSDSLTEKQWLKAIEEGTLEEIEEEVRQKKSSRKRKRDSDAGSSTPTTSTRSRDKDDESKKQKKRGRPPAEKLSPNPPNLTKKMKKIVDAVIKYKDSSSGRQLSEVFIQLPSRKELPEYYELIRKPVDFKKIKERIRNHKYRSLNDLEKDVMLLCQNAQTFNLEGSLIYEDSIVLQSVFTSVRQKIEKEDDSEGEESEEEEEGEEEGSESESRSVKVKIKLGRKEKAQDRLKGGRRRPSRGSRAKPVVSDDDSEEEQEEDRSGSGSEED

Regarding `O=C1CCC(N2C(=O)c3ccc(N4CCC(CN5C[C@H]6C[C@H](CN7CCN8c9cc(-c%10ccccc%10O)nnc9NC[C@H]8C7)C[C@H]6C5)CC4)cc3C2=O)C(=O)N1` (stereo partly drawn) [Example 45, 2-(2,6-dioxopiperidin-3-yl)-5-(4-(((3aR,5s,6aS)-5-(((S)-2-(2-hydroxyphenyl)-5,6,6a,7,9,10-hexahydro-8H-pyrazino [1′,2′:4,5]pyrazino[2,3-c]pyridazin-8-yl)methyl)hexahydrocyclopenta[c]pyrrol-2(1H)-yl)methyl)piperidin-1-yl)isoindoline-1,3-dione], at SMARCA2-HiBiT, the DC50 (in general, the concentration giving 50% degradation) was less than 0.01 µM and the Dmax (usually the largest share of the target that was removed) was more than 85%. Besides, at SMARCA4-HiBiT, the DC50 was less than 0.01 µM and the Dmax is more than 85%.

As to `O=C1CCC(N2C(=O)c3ccc(N4CCC(CN5CCC6C(C5)C6CN5CCN6c7cc(-c8ccccc8O)nnc7NC[C@H]6C5)CC4)cc3C2=O)C(=O)N1` (stereo partly drawn) [Example 46, 2-(2,6-dioxopiperidin-3-yl)-5-(4-((7-(((S)-2-(2-hydroxyphenyl)-5,6,6a,7,9,10-hexahydro-8H-pyrazino[1′,2′:4,5]pyrazino[2,3-c]pyridazin-8-yl)methyl)-3-azabicyclo[4.1,0]heptan-3-yl)methyl)piperidin-1-yl)isoindoline-1,3-dione], the DC50 at SMARCA2-HiBiT and at SMARCA4-HiBiT was less than 0.01 µM each time. In addition, the Dmax at SMARCA2-HiBiT and at SMARCA4-HiBiT was more than 85% each time.

Regarding `O=C1CCC(N2C(=O)c3ccc(N4CCC(O)(CN5C[C@@H]6[C@@H](CN7CCN8c9cc(-c%10ccccc%10O)nnc9NC[C@H]8C7)[C@@H]6C5)CC4)cc3C2=O)C(=O)N1` (stereo partly drawn) [Example 47, 2-(2,6-dioxopiperidin-3-yl)-5-(4-hydroxy-4-(((1R,5S,6s)-6-(((S)-2-(2-hydroxyphenyl)-5,6,6a,7,9,10-hexahydro-811-pyrazino[1′,2′:4,5]pyrazino[2,3-c]pyridazin-8-yl)methyl)-3-azabicyclo[3.1.0]hexan-3-yl)methyl)piperidin-1-yl) isoindoline-1,3-dione], at SMARCA2-HiBiT, the DC50 was less than 0.01 µM and the Dmax was more than 85%. For the same molecule, at SMARCA4-HiBiT, the DC50 is less than 0.01 µM and the Dmax fell in the range of 50 to 75%.

On to `O=C1CCC(N2C(=O)c3ccc(N4CCC(F)(CN5CCC(CN6CCN7c8cc(-c9ccccc9O)nnc8NC[C@H]7C6)CC5)CC4)cc3C2=O)C(=O)N1` (stereo partly drawn) [Example 48, 2-(2,6-dioxopiperidin-3-yl)-5-(4-fluoro-4-((4-(((S)-2-(2-hydroxyphenyl)-5,6,6a,7,9,10-hexahydro-8H-pyrazino[1′,2′:4,5]pyrazino[2,3-c]pyridazin-8-yl)methyl)piperidin-1-yl)methyl)piperidin-1-yl)isoindoline-1,3-dione], for which, at SMARCA2-HiBiT, the DC50 is less than 0.01 µM and the Dmax is more than 85%. In addition, on SMARCA4-HiBiT, the DC50 is less than 0.01 µM and the Dmax lay within 75 to 85%.

Take `O=C1CCC(N2C(=O)c3ccc(N4CCOC(CN5C[C@@H]6[C@H](C5)[C@H]6CN5CCN6c7cc(-c8ccccc8O)nnc7NC[C@H]6C5)C4)cc3C2=O)C(=O)N1` (stereo partly drawn) [Example 49, 2-(2,6-dioxopiperidin-3-yl)-5-(2-(((1R,5S,6s)-6-(((S)-2-(2-hydroxyphenyl)-5,6,6a,7,9,10-hexahydro-8H-pyrazino[1′,2′:4,5]pyrazino[2,3-c]pyridazin-8-yl)methyl)-3-azabicyclo[3.1.0]hexan-3-yl)methyl)morpholino)isoindoline-1,3-dione]: on SMARCA2-HiBiT, the half-maximal degradation concentration (DC50) was less than 0.01 µM and the Dmax is more than 85%. Moreover, at SMARCA4-HiBiT, the DC50 was less than 0.01 µM and the Dmax lay within 75 to 85%.

Take `O=C1CCC(N2C(=O)c3ccc(N4CCC(O)(CN5CCC(CN6CCN7c8cc(-c9ccccc9O)nnc8NC[C@H]7C6)CC5)CC4)cc3C2=O)C(=O)N1` (stereo partly drawn) [Example 50, 2-(2,6-dioxopiperidin-3-yl)-5-(4-hydroxy-4-((4-(((S)-2-(2-hydroxyphenyl)-5,6,6a,7,9,10-hexahydro-8H-pyrazino[1′,2′:4,5]pyrazino[2,3-c]pyridazin-8-yl)methyl)piperidin-1-yl)methyl)piperidin-1-yl)isoindoline-1,3-dione]: the DC50 on SMARCA2-HiBiT and on SMARCA4-HiBiT was less than 0.01 µM throughout. Besides, the Dmax at SMARCA2-HiBiT is more than 85%; at SMARCA4-HiBiT it was 75 to 85%.

Regarding `O=C1CCC(N2C(=O)c3ccc(N4CCO[C@@H](CN5C[C@@H]6[C@H](C5)[C@H]6CN5CCN6c7cc(-c8ccccc8O)nnc7NC[C@H]6C5)C4)cc3C2=O)C(=O)N1` (stereo partly drawn) [Example 51, 2-(2,6-dioxopiperidin-3-yl)-5-((S)-2-(((1R,5S,6R)-6-(((S)-2-(2-hydroxyphenyl)-5,6,6a,7,9,10-hexahydro-8H-pyrazino[1′,2′:4,5]pyrazino[2,3-c]pyridazin-8-yl)methyl)-3-azabicyclo[3.1.0]hexan-3-yl)methyl)morpholino)isoindoline-1,3-dione], at SMARCA2-HiBiT, the DC50 is less than 0.01 µM and the Dmax was more than 85%. For the same molecule, on SMARCA4-HiBiT, the DC50 was less than 0.01 µM and the Dmax is 50 to 75%.

`O=C1CCC(N2C(=O)c3ccc(N4CCO[C@H](CN5C[C@@H]6[C@H](C5)[C@H]6CN5CCN6c7cc(-c8ccccc8O)nnc7NC[C@H]6C5)C4)cc3C2=O)C(=O)N1` (stereo partly drawn) [Example 52, 2-(2,6-dioxopiperidin-3-yl)-5-((R)-2-(((1R,5S,6S)-6-(((S)-2-(2-hydroxyphenyl)-5,6,6a,7,9,10-hexahydro-8H-pyrazino[1′,2′:4,5]pyrazino[2,3-c]pyridazin-8-yl)methyl)-3-azabicyclo[3.1.0]hexan-3-yl)methyl)morpholino)isoindoline-1,3-dione]: at SMARCA2-HiBiT, the DC50 is less than 0.01 µM and the Dmax was more than 85%. On SMARCA4-HiBiT, the DC50 is less than 0.01 µM and the Dmax lay in the range of 75 to 85%.

As to `O=C1CCC(N2C(=O)c3ccc(N4CC5CCC(C4)C5CN4C[C@@H]5[C@H](C4)[C@H]5CN4CCN5c6cc(-c7ccccc7O)nnc6NC[C@H]5C4)cc3C2=O)C(=O)N1` (stereo partly drawn) [Example 53, 2-(2,6-dioxopiperidin-3-yl)-5-(8-(((1R,5S,6r)-6-(((S)-2-(2-hydroxyphenyl)-5,6,6a,7,9,10-hexahydro-8H-pyrazino [1′,2′:4,5]pyrazino[2,3-c]pyridazin-8-yl)methyl)-3-azabicyclo [3.1,0]hexan-3-yl)methyl)-3-azabicyclo[3.2.1]octan-3-yl)isoindoline-1,3-dione], on SMARCA2-HiBiT, the DC50 is less than 0.01 µM and the Dmax was in the range of 75 to 85%. On SMARCA4-HiBiT, the DC50 is less than 0.01 µM and the Dmax lay in the range of 50 to 75%.

Take `C[C@H]1CN2c3cc(-c4ccccc4O)nnc3NC[C@H]2CN1C[C@H]1[C@@H]2CN(CC3CCN(c4ccc5c(c4)C(=O)N(C4CCC(=O)NC4=O)C5)CC3)C[C@@H]21` (stereo partly drawn) [Example 54, 3-(6-(4-(((1R,5S,6r)-6-(((6aS,9S)-2-(2-hydroxyphenyl)-9-methyl-5,6,6a,7,9,10-hexahydro-8H-pyrazino[1′,2′:4,5]pyrazino[2,3-c]pyridazin-8-yl)methyl)-3-azabicyclo[3.1.0]hexan-3-yl)methyl)piperidin-1-yl)-1-oxoisoindolin-2-yl)piperidine-2,6-dione]: at SMARCA2-HiBiT, the DC50 is less than 0.01 µM and the Dmax is 75 to 85%. For the same molecule, on SMARCA4-HiBiT, the DC50 was in the range of 0.01 to 0.1 µM and the Dmax lay within 50 to 75%.

Take `O=C1CCC(N2C(=O)c3ccc(N4CCC(F)(F)C(CN5C[C@@H]6[C@H](C5)[C@H]6CN5CCN6c7cc(-c8ccccc8O)nnc7NC[C@H]6C5)C4)cc3C2=O)C(=O)N1` (stereo partly drawn) [Example 55, 5-(4,4-difluoro-3-(((1R,5S,6r)-6-(((S)-2-(2-hydroxyphenyl)-5,6,6a,7,9,10-hexahydro-8H-pyrazino[1′,2′:4,5]pyrazino[2,3-c]pyridazin-8-yl)methyl)-3-azabicyclo[3.1.0]hexan-3-yl)methyl)piperidin-1-yl)-2-(2,6-dioxopiperidin-3-yl)isoindoline-1,3-dione]: at SMARCA2-HiBiT, the DC50 lay in the range of 0.01 to 0.1 µM and the Dmax is 50 to 75%. In addition, at SMARCA4-HiBiT, the DC50 is 0.01 to 0.1 µM and the Dmax is 75 to 85%.

These data come from patent US12448389B2, “BRM targeting compounds and associated methods of use” (Prelude Therapeutics Incorporated, priority 2020, dated 2025).
